Measurements reported in patent US20120238767A1, “ANTIOXIDANT INFLAMMATION MODULATORS: NOVEL DERIVATIVES OF OLEANOLIC ACID” (priority 2008, published 2012).

Assays:
[1] = test system: IFNγ-induced NO production in RAW264.7 macrophages; test: Suppression of IFNγ-induced NO production (Griess reagent); format: cell-based, mouse; conditions: RAW264.7, 20 ng/ml IFNγ for 24 hours, 2 hours pre-treatment
Description: (§1) FIGS. 1-11 and 22. Inhibition of NO Production. RAW264.7 macrophages were pre-treated with DMSO or drugs at various concentrations (nM) for 2 hours, then treated with 20 ng/ml IFNγ for 24 hours. NO concentration in media was determined using a Griess reagent system; cell viability was determined using WST-1 reagent. Nitric Oxide production and cell viability. RAW264.7 macrophages were pre-treated with DMSO or drugs for 2 hours, then treated with recombinant mouse IFNγ (Sigma) for 24 hours. NO concentration in media was determined using the Griess reagent system (Promega). Cell viability was determined using WST-1 reagent (Roche).

RAW264.7 macrophages = test: Cell viability (WST-1 reagent); format: cell-based, mouse; conditions: RAW264.7, 20 ng/ml IFNγ
Description: as §1

Molecule `COC(=O)[C@]12CCC(C)(C)C[C@H]1[C@H]1C(=O)C=C3[C@@]4(C)C=C(F)C(=O)C(C)(C)[C@@H]4CC[C@@]3(C)[C@]1(C)CC2` [Compound 402-05, (4aS,6aR,6bS,8aR,12aR,14aR,14b5)-methyl-11-fluoro-2,2,6a,6b,9,9,12a-heptamethyl-10,14-dioxo-1,2,3,4,4a,5,6,6a,6b,7,8,8a,9,10,12a,14,14a,14b-octadecahydropicene-4a-carboxylate] has an IC50 [1] of over 200 nM and an IC50 (RAW264.7 macrophages) of over 200 nM.
Work on `COC(=O)[C@]12CCC(C)(C)C[C@H]1[C@H]1C(=O)C=C3[C@@]4(C)C=C(c5nnn[nH]5)C(=O)C(C)(C)[C@@H]4CC[C@@]3(C)[C@]1(C)CC2` [Compound 402-06, (4aS,6aR,6bS,8aR,12aS,14aR,14bS)-methyl-2,2,6a,6b,9,9,12a-heptamethyl-10,14-dioxo-11-(1H-tetrazol-5-yl)-1,2,3,4,4a,5,6,6a,6b,7,8,8a,9,10,12a,14,14a,14b-octadecahydropicene-4a-carboxylate] yielded an IC50 ([1]; Mus musculus) of over 200 nM and an IC50 (RAW264.7 macrophages; Mus musculus) of over 200 nM.
`COC(=O)[C@]12CCC(C)(C)C[C@H]1[C@H]1C(=O)C=C3[C@@]4(C)C=C(C(=O)NO)C(=O)C(C)(C)[C@@H]4CC[C@@]3(C)[C@]1(C)CC2` [Compound 402-07, (4aS,6aR,6bS,8aR,12aS,14aR,14b5)-methyl-11-(hydroxycarbamoyl)-2,2,6a,6b,9,9,12a-heptamethyl-10,14-dioxo-1,2,3,4,4a,5,6,6a,6b,7,8,8a,9,10,12a,14,14a,14b-octadecahydropicene-4a-carboxylate] gave an IC50 ([1]; Mus musculus) of over 200 nM and an IC50 (RAW264.7 macrophages; Mus musculus) of over 200 nM.
`COC(=O)[C@]12CCC(C)(C)C[C@H]1[C@H]1C(=O)C=C3[C@@]4(C)C=C(C(=O)NS(C)(=O)=O)C(=O)C(C)(C)[C@@H]4CC[C@@]3(C)[C@]1(C)CC2` [Compound 402-08, (4aS,6aR,6bS,8aR,12aS,14aR,14bS)-methyl-2,2,6a,6b,9,9,12a-heptamethyl-11-(methylsulfonylcarbamoyl)-10,14-dioxo-1,2,3,4,4a,5,6,6a,6b,7,8,8a,9,10,12a,14,14a,14b-octadecahydropicene-4a-carboxylate] showed an IC50 ([1]; Mus musculus) of 62 nM and an IC50 (RAW264.7 macrophages; Mus musculus) of over 200 nM.
With `CC1(C)CC[C@]2(C(=O)NO)CC[C@]3(C)[C@H](C(=O)C=C4[C@@]5(C)C=C(C#N)C(=O)C(C)(C)[C@@H]5CC[C@]43C)[C@@H]2C1` [Compound 402-09, (4aS,6aR,6bS,8aR,12aS,14aR,14bS)-11-cyano-N-hydroxy-2,2,6a,6b,9,9,12a-heptamethyl-10,14-dioxo-1,2,3,4,4a,5,6,6a,6b,7,8,8a,9,10,12a,14,14a,14b-octadecahydropicene-4a-carboxamide] the IC50 ([1]; Mus musculus) was 4.2 nM and the IC50 (RAW264.7 macrophages; Mus musculus) was over 200 nM.
In the case of `CONC(=O)[C@]12CCC(C)(C)C[C@H]1[C@H]1C(=O)C=C3[C@@]4(C)C=C(C#N)C(=O)C(C)(C)[C@@H]4CC[C@@]3(C)[C@]1(C)CC2` [Compound 402-10, (4aS,6aR,6bS,8aR,12aS,14aR,14bS)-11-cyano-N-methoxy-2,2,6a,6b,9,9,12a-heptamethyl-10,14-dioxo-1,2,3,4,4a,5,6,6a,6b,7,8,8a,9,10,12a,14,14a,14b-octadecahydropicene-4a-carboxamide], the IC50 ([1]; Mus musculus) is reported as 2.3 nM and the IC50 (RAW264.7 macrophages; Mus musculus) is reported as over 200 nM.
`CC1(C)CC[C@]2(C(=O)N=[N+]=[N-])CC[C@]3(C)[C@H](C(=O)C=C4[C@@]5(C)C=C(C#N)C(=O)C(C)(C)[C@@H]5CC[C@]43C)[C@@H]2C1` [Compound 402-11, (4aS,6aR,6bS,8aR,12aS,14aR,14bS)-11-cyano-2,2,6a,6b,9,9,12a-heptamethyl-10,14-dioxo-1,2,3,4,4a,5,6,6a,6b,7,8,8a,9,10,12a,14,14a,14b-octadecahydropicene-4a-carbonyl azide] was tested, and the IC50 ([1]; Mus musculus) was 2.5 nM and the IC50 (RAW264.7 macrophages; Mus musculus) was 150 nM.
Molecule `COC(=O)[C@]12CCC(C)(C)C[C@H]1[C@H]1C(=O)C=C3[C@@]4(C)C(C)=C(C#N)C(=O)C(C)(C)[C@@H]4CC[C@@]3(C)[C@]1(C)CC2` [Compound 402-22, (4 aS,6aR,6bS,8aR,12 aR,14 aR,14bS)-methyl-11-cyano-2,2,6a,6b,9,9,12,12a-octamethyl-10,14-dioxo-1,2,3,4,4a,5,6,6a,6b,7,8,8a,9,10,12a,14,14a,14b-octadecahydropicene-4a-carboxylate] has an IC50 ([1]; Mus musculus) of over 200 nM and an IC50 (RAW264.7 macrophages; Mus musculus) of over 200 nM.
`CC1(C)CC[C@]2(C(=O)NCCO)CC[C@]3(C)[C@H](C(=O)C=C4[C@@]5(C)C=C(C#N)C(=O)C(C)(C)[C@@H]5CC[C@]43C)[C@@H]2C1` [Compound 402-40, (4aS,6aR,6bS,8aR,12aS,14aR,14bS)-11-cyano-N-(2-hydroxyethyl)-2,2,6a,6b,9,9,12a-heptamethyl-10,14-dioxo-1,2,3,4,4a,5,6,6a,6b,7,8,8a,9,10,12a,14,14a,14b-octadecahydropicene-4a-carboxamide] was tested, and the IC50 ([1]; Mus musculus) was 17 nM and the IC50 (RAW264.7 macrophages; Mus musculus) was 75 nM.
For `COC(=O)[C@]12CCC(C)(C)C[C@H]1[C@H]1C(=O)C=C3[C@@]4(C)CC(C#N)=C(OC(C)=O)C(C)(C)[C@@H]4CC[C@@]3(C)[C@]1(C)CC2` [Compound 402-47, (4aS,6aR,6bS,8aR,12aS,14aR,14bS)-methyl-10-acetoxy-11-cyano-2,2,6a,6b,9,9,12a-heptamethyl-14-oxo-1,2,3,4,4a,5,6,6a,6b,7,8,8a,9,12,12a,14,14a,14b-octadecahydropicene-4a-carboxylate], the IC50 ([1]; Mus musculus) was over 200 nM and the IC50 (RAW264.7 macrophages; Mus musculus) was over 200 nM.
Molecule `CC1(C)CC[C@]2(C(=O)F)CC[C@]3(C)[C@H](C(=O)C=C4[C@@]5(C)C=C(C#N)C(=O)C(C)(C)[C@@H]5CC[C@]43C)[C@@H]2C1` [Compound 402-55, (4aS,6aR,6bS,8aR,12aS,14aR,14bS)-11-cyano-2,2,6a,6b,9,9,12a-heptamethyl-10,14-dioxo-1,2,3,4,4a,5,6,6a,6b,7,8,8a,9,10,12a,14,14a,14b-octadecahydropicene-4a-carbonyl fluoride] has an IC50 ([1]; Mus musculus) of about 3 nM and an IC50 (RAW264.7 macrophages; Mus musculus) of 100 nM.
`COC(=O)[C@]12CCC(C)(C)C[C@H]1[C@H]1C(=O)C=C3[C@@]4(C)C=C(C#N)C(=O)[C@](C)(CO)[C@@H]4CC[C@@]3(C)[C@]1(C)CC2` [Compound 63301, (4aS,6aR,6bS,8aR,9S,12aS,14aR,14b5)-methyl 11-cyano-9-(hydroxymethyl)-2,2,6a,6b,9,12a-hexamethyl-10,14-dioxo-1,2,3,4,4a,5,6,6a,6b,7,8,8a,9,10,12a,14,14a,14b-octadecahydropicene-4a-carboxylate] was tested, and the IC50 ([1]; Mus musculus) was about 3.2 nM and the IC50 (RAW264.7 macrophages; Mus musculus) was about 120 nM.
`COCOC[C@@]1(C)C(=O)C(C#N)=C[C@]2(C)C3=CC(=O)[C@@H]4[C@@H]5CC(C)(C)CC[C@]5(C(=O)OC)CC[C@@]4(C)[C@]3(C)CC[C@@H]12` [Compound 63302, (4aS,6aR,6bS,8aR,9S,12aS,14aR,14bS)-methyl 11-cyano-9-((methoxymethoxy)methyl)-2,2,6a,6b,9,12a-hexamethyl-10,14-dioxo-1,2,3,4,4a,5,6,6a,6b,7,8,8a,9,10,12a,14,14a,14b-octadecahydropicene-4a-carboxylate] was tested, and the IC50 ([1]; Mus musculus) was about 18 nM and the IC50 (RAW264.7 macrophages; Mus musculus) was about 100 nM.
For `COC(=O)[C@]12CCC(C)(C)C[C@H]1[C@H]1C(=O)C=C3[C@@]4(C)C=C(C(F)(F)F)C(=O)C(C)(C)[C@@H]4CC[C@@]3(C)[C@]1(C)CC2` [Compound 63320, (4aS,6aR,6bS,8aR,12aS,14aR,14bS)-methyl 2,2,6a,6b,9,9,12a-heptamethyl-10,14-dioxo-11-(trifluoromethyl)-1,2,3,4,4a,5,6,6a,6b,7,8,8a,9,10,12a,14,14a,14b-octadecahydropicene-4a-carboxylate], the IC50 ([1]; Mus musculus) was about 12 nM.
